Structure (SMILES)	melting point [°C]
O=C(O)C1=CCCN(Cc2ccc(Cl)c(Cl)c2)C1	240 to 245
Cc1c([N+](=O)[O-])ccc(N)c1C(=O)O	183 to 184
CC(=O)N1CCC(C(=O)c2ccc(Br)cc2F)CC1	111 to 113
COC(=O)[C@]1(OS(C)(=O)=O)C[C@H](CC(C)C)[C@@H]2O[C@@H]2C1	120 to 121
FC(F)(F)c1ccc(CCl)cc1	224 to 228
Nc1ccc(OCc2nnco2)cc1	56 to 57
COc1cccc(CN2Cc3cc(OC)c(O)cc3C(O)C2)c1 (configuration not stated)	137 to 138
CCCCN1CCN(NC(=O)c2cc(Cl)c(N)cc2OC)CC1	174
CN(CP(=O)(O)O)C1CCS(=O)(=O)C1 (configuration not stated)	222 to 225
CCCC(CC(=O)NC(=O)OC(C)(C)C)Nc1ccc(Cl)cc1 (configuration not stated)	76 to 77
Cc1ccnc(-c2c(C)noc2C)c1OC1SCC(O)C(O)C1O (configuration not stated)	70 to 100
CCCCC(CBr)CCCc1ccccc1 (configuration not stated)	31 to 33
CC(C)(C)NCCCOc1ccccc1Cc1cccc2[nH]ccc12	96
CC(Cc1ccc(F)c(F)c1)C(=O)O (configuration not stated)	55 to 56
COc1nc(C(F)(F)F)cc(=O)n1-c1cc(C(=O)N(C)OC)c(Cl)cc1F	119
Cc1ccc(SCc2ncon2)cc1	53
O=c1[nH]c(CCN2CCN(c3nsc4ccccc34)CC2)cs1	190
COc1nc(N)cc2cccnc12	178 to 180
Cn1c(CC(=O)O)c(C(=O)O)c(Br)c1C(=O)c1ccc(Cl)cc1	261 to 263
CCOC(=O)c1c(OCN2C(=O)c3c(C(C)C)cc(OC)cc3S2(=O)=O)nc2ncccn2c1=O	189 to 191

Structure (SMILES)	melting point [°C]
CCCC(=O)Nc1cccc(C2(c3cc(C(=O)CC)n(CC)c3)N=C(N)N(C)C2=O)c1 (configuration not stated)	201 to 205
Brc1c[nH]nc1-c1ccccc1	114 to 116
COCC(C)(COC)C(=O)O[C@H]1C[C@H](O)C=C2C=C[C@H](C)[C@H](CC[C@@H]3C[C@@H](O)CC(=O)O3)[C@H]21	122 to 123
CC(C)CNC(=O)N(CCCl)N=O	51
c1ccc2c(c1)CCC1C2=NNC1c1ccncc1 (configuration not stated)	169 to 173
CCCCCCCCCCCCCCCNC(=O)OCCOCCOC(=O)N(Cc1ccccn1)C(C)=O	53 to 55
CC=C(NC(=O)C1CC1(CC)CC)C(=O)O (configuration not stated)	129 to 130
Cc1cccc(C)c1/N=C1\SCC(=O)N1N	149 to 152
NC(CF)(Cc1cccc(O)c1)C(=O)O (configuration not stated)	227
CCNc1ncn(CC)c2nc(C3CC3)nc1-2	103 to 105
CCOC(=O)C(=CNc1cccc(N)c1)C(=O)OCC	71 to 74
CCOP(=O)(O)C(=Nc1ccc(-c2c[nH]cn2)cc1)NCCSC	240 to 241
COc1cccc2c(Nc3ccc(O)cc3C)c(C(=O)C(C)C)cnc12	243 to 245
O=C(Nc1cccnc1O)C1CCCC1	242 to 243
C=CCC(CC=C)(CC=C)c1ccc(-c2nc3cc(C#N)c(C#N)cc3[nH]2)cc1	264 to 266
CC(C)n1cc(C=O)c(-c2ccc([N+](=O)[O-])o2)n1	168 to 170
CC(=C(Br)Br)c1cn(-c2c(Cl)cc(C(F)(F)F)cc2Cl)nc1C#N	119 to 122
Clc1ccc2nc(N3CCN(c4c(Cl)cncc4Cl)CC3)[nH]c2c1	258 to 260
COc1ccc(-c2cc(Oc3c(C)cc(C)cc3C)nc(C)n2)cc1OC	122 to 125
CCOc1ncc(C(C)=O)cc1C(=O)Nc1c(C(N)=O)nn(C2CN(CC)C2)c1CC	230 to 233

The remaining lines, values ahead:

melting point [°C]	Structure (SMILES)
166	COc1ccc2nccc(CCC[C@@H]3CCN(CC#Cc4ccccc4)C[C@@H]3C(=O)O)c2c1
131 to 135	Nc1cc(Oc2ccc(NC(=O)Nc3ccc(-c4ccncc4)c(C(F)(F)F)c3)cc2)ncn1
172 to 173	O=C1CN(c2cccc(Oc3ccccc3)c2)NC(=O)N1
146 to 148	BrCc1ccc2nc(-c3ccccc3)c(-c3ccccc3)nc2c1
132 to 134	CCOC(=O)Cc1ccc(NC(=O)C(COc2ccc(Cl)cc2)NS(=O)(=O)c2ccc(F)cc2)cc1 (racemic)
137 to 139	CC(C)C(NC(=O)Cn1cccc(NC(=O)Oc2ccc(Cl)cc2)c1=O)C(=O)C(F)(F)F (configuration not stated)
150 to 151	Cc1c(Sc2ccc(Cl)cc2)nn(-c2cccc(Cl)c2)c(=O)c1C#N
204 to 206	COc1ccc(N(CCCC(=O)O)C(=O)C(C)N(C(=O)c2ccco2)c2ccc(OC)cc2)cc1 (configuration not stated)
62 to 65	CC(C)(C)NC(=O)[C@@H]1CSCN1C[C@@H](O)[C@H](Cc1ccccc1)NC(=O)OCc1ccccc1
154 to 156	CC(C)NC(=O)N1c2ccc(S(=O)(=O)n3cc(-c4ccccc4)[nH]c3=O)cc2CC1C (configuration not stated)
88 to 90	COc1ccc2ccc(C(=O)NCc3ccccc3)c(OC(C)C)c2c1
106 to 108	CCCCOCCOc1ccc(-c2ccc(N3CCCCC3C)c(C=CC(=O)O)c2)cc1 (configuration not stated)
211 to 212	O=c1c(-c2ccccc2)c[nH]n1-c1cccc(Cl)c1
195 to 200	N#Cc1ccc(CC(NC(=O)CC(NS(=O)(=O)c2ccc3ccccc3c2)c2ccccc2)C(=O)N2CCCC2)cc1 (configuration not stated)
73 to 74	O=Cc1cc(Cl)ccc1OCCc1ccccc1
222 to 223	COc1ccc(CNc2n[nH]c3ncnc(Nc4cccc(Cl)c4)c23)cc1

melting point [°C]	Structure (SMILES)
112	CCOC(=O)Cc1cc2c(N=C3SC[C@@H]4Cc5ccccc5CN34)cccc2cn1
244 to 246	O=C1CC(CN2C(=O)c3ccccc3C2=O)=Nc2ccccc2N1
181 to 182	O=C1c2ccccc2C(=O)N1CCc1cn2ccccc2n1
242	Cc1nc2c(n1-c1ccccc1)C(=O)c1ccccc1C2=O
188 to 191	COC(=O)N(C)CCc1ccc2[nH]c(C)c(S(=O)(=O)c3ccccc3)c2c1
127 to 128	CCOC(=O)c1cn(Cc2ccccc2)nc1OCc1ccc(OCc2nc(-c3ccco3)oc2C)c(OCc2ccccc2)c1
204	CN1C(=O)N(c2cc(Cl)cc(Cl)c2)C(=O)[C@]12CN(Cc1ccccc1)C[C@H]2c1ccc(Br)cc1 (relative stereo)
187 to 190	CCOC(=O)c1c(S(=O)(=O)O)nc(-c2ccccc2)c([N+](=O)[O-])c1C(=O)OCC
91 to 94	O=C(O)C(CCCCc1ccccc1)Oc1cccc2ccccc12 (configuration not stated)
93 to 95	O=C(c1ccc(-c2ccccc2)cc1)N1Cc2ccccc2Oc2ccccc21
172 to 180	O=C1CC(NC(=O)C2CCCN3C(=O)CCC(NC(=O)c4ccccc4)C(=O)N23)C(OC2CCCC2)O1 (configuration not stated)
124 to 125	Cc1ccc(Cn2c(=O)c(-c3ccccc3)c3n(c2=O)CC=CS3)cc1
99 to 101	C=CC[C@@H]1C[C@@H](COc2ccc(-c3ccc(C#N)cc3)cc2)NC1=O
154 to 160	COc1ccc(-n2cc(C)cc2-c2ccc(S(C)(=O)=O)cc2)cc1
88.6	CCOC(=O)C=Cc1ccc(-c2ccccc2)cc1
111 to 112	CC(Oc1ccc(Oc2ccccc2)cc1)(C(=O)O)C(F)(F)F (configuration not stated)

— a melting point compilation (Tetko et al.; mined from patent text by program, amines drawn as free bases though some values may be those of a salt)
